Activity calls are given as the source filed them. The calls are words filed in the database; no cut-off is given here.
Target: T1, Melatonin receptor type 1C (Xenopus laevis) (UniProt P49219)
T1 sequence (whole entry): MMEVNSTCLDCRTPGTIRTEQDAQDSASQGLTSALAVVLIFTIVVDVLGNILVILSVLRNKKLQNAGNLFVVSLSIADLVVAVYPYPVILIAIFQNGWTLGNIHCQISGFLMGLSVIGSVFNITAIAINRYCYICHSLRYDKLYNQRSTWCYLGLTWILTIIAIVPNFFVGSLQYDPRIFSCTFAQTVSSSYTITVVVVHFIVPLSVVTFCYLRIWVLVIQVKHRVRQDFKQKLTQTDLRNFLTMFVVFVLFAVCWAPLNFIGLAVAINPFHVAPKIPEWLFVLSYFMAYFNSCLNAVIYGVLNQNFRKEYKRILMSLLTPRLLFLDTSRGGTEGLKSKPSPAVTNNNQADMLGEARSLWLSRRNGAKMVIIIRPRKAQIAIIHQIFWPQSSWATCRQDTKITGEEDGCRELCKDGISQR
Experiment: Effect on pigment aggregation in Xenopus laevis melanophores at 10 uM
Type: functional

Row | Activity | Compound
1 | inactive | CCCC(=O)NCCc1cn(C)c2c(-c3ccccc3)cc(OC)cc12
2 | inactive | CCC(=O)NCCc1cn(C)c2c(-c3ccccc3)cc(OC)cc12

Target: Melatonin receptor type 1A (Homo sapiens, UniProt P48039)
Sequence (P48039 whole entry): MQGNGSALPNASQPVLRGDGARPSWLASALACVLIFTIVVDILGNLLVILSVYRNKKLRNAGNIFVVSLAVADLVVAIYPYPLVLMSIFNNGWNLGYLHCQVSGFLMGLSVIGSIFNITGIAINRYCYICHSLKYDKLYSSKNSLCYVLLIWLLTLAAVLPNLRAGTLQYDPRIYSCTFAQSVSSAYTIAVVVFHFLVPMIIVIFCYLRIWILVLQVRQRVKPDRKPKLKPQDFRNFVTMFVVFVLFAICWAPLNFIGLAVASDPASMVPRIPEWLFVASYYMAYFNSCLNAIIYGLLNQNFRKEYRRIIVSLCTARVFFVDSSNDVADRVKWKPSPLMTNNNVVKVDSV
Experiment: Displacement of 2[125I]iodomelatonin from human recombinant MT1 receptor expressed in NIH3T3 cells
Type: cell-based

Row | Ki | Compound
3 | 5.13 nM | CCCC(=O)NCCc1c[nH]c2c(Br)cc(OC)cc12
4 | 33.1 nM | CCCC(=O)NCCc1cn(C)c2c(Br)cc(OC)cc12
5 | 2.88 nM | CCCC(=O)NCCc1c[nH]c2c(C)cc(OC)cc12
6 | 19.5 nM | CCCC(=O)NCCc1cn(C)c2c(C)cc(OC)cc12
7 | 2.69 nM | COc1cc(C)c2[nH]cc(CCNC(C)=O)c2c1
8 | 1.78 nM | CCC(=O)NCCc1c[nH]c2c(C)cc(OC)cc12
9 | 15.8 nM | CCC(=O)NCCc1cn(C)c2c(C)cc(OC)cc12
10 | 8.71 nM | COc1cc(C)c2c(c1)c(CCNC(C)=O)cn2C
11 | 1260 nM | COc1cc(-c2ccccc2)c2c(c1)c(CCNC(C)=O)cn2C
12 | 3.55 nM | COc1cc(Br)c2[nH]cc(CCNC(C)=O)c2c1
13 | 14.1 nM | CCC(=O)NCCc1cn(C)c2c(Br)cc(OC)cc12
14 | 12900 nM | COc1cc(-c2ccccc2)c2[nH]cc(CCNC(C)=O)c2c1
15 | 617 nM | CCC(=O)NCCc1c[nH]c2c(-c3ccccc3)cc(OC)cc12
16 | 5370 nM | CCCC(=O)NCCc1cn(C)c2c(-c3ccccc3)cc(OC)cc12
17 | 5890 nM | CCC(=O)NCCc1cn(C)c2c(-c3ccccc3)cc(OC)cc12
18 | 955 nM | CCCC(=O)NCCc1c[nH]c2c(-c3ccccc3)cc(OC)cc12
19 | 4.17 nM | CCC(=O)NCCc1c[nH]c2c(Br)cc(OC)cc12
20 | 10.5 nM | COc1cc(Br)c2c(c1)c(CCNC(C)=O)cn2C

Target: T2, Melatonin receptor type 1B (Homo sapiens, UniProt P49286)
T2 sequence (P49286 whole entry): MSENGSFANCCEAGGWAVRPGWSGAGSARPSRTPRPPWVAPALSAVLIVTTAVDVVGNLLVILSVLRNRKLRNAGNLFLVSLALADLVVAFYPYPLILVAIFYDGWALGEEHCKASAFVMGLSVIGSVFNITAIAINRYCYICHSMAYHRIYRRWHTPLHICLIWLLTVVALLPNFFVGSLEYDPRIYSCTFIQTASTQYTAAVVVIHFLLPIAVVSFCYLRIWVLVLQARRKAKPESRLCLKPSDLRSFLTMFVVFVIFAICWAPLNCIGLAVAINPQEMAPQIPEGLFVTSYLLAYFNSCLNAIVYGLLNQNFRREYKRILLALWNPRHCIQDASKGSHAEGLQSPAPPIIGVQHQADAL
Experiment: Displacement of 2[125I]iodomelatonin from human recombinant MT2 receptor expressed in NIH3T3 cells
Type: cell-based

Row | Ki | Compound
21 | 0.355 nM | CCCC(=O)NCCc1c[nH]c2c(Br)cc(OC)cc12
22 | 2.14 nM | CCCC(=O)NCCc1cn(C)c2c(Br)cc(OC)cc12
23 | 0.676 nM | CCCC(=O)NCCc1c[nH]c2c(C)cc(OC)cc12
24 | 1.35 nM | CCCC(=O)NCCc1cn(C)c2c(C)cc(OC)cc12
25 | 1.74 nM | COc1cc(C)c2[nH]cc(CCNC(C)=O)c2c1
26 | 1.1 nM | CCC(=O)NCCc1c[nH]c2c(C)cc(OC)cc12
27 | 2.63 nM | CCC(=O)NCCc1cn(C)c2c(C)cc(OC)cc12
28 | 1.55 nM | COc1cc(C)c2c(c1)c(CCNC(C)=O)cn2C
29 | 457 nM | COc1cc(-c2ccccc2)c2c(c1)c(CCNC(C)=O)cn2C
30 | 0.676 nM | COc1cc(Br)c2[nH]cc(CCNC(C)=O)c2c1
31 | 2.29 nM | CCC(=O)NCCc1cn(C)c2c(Br)cc(OC)cc12
32 | 3020 nM | COc1cc(-c2ccccc2)c2[nH]cc(CCNC(C)=O)c2c1
33 | 617 nM | CCC(=O)NCCc1c[nH]c2c(-c3ccccc3)cc(OC)cc12
34 | 851 nM | CCCC(=O)NCCc1cn(C)c2c(-c3ccccc3)cc(OC)cc12
35 | 676 nM | CCC(=O)NCCc1cn(C)c2c(-c3ccccc3)cc(OC)cc12
36 | 871 nM | CCCC(=O)NCCc1c[nH]c2c(-c3ccccc3)cc(OC)cc12
37 | 0.537 nM | CCC(=O)NCCc1c[nH]c2c(Br)cc(OC)cc12
38 | 1.32 nM | COc1cc(Br)c2c(c1)c(CCNC(C)=O)cn2C

Target: T3, Melatonin receptor type 1C (Xenopus laevis, UniProt P49219)
T3 sequence (P49219 whole entry): T1 sequence (whole entry)
Experiment: Effect on pigment aggregation in Xenopus laevis melanophores
Type: functional

Row | EC50 | Compound
39 | 3.47 nM | CCCC(=O)NCCc1c[nH]c2c(Br)cc(OC)cc12
40 | 52.5 nM | CCCC(=O)NCCc1cn(C)c2c(Br)cc(OC)cc12
41 | 12.6 nM | CCCC(=O)NCCc1c[nH]c2c(C)cc(OC)cc12
42 | 16.6 nM | CCCC(=O)NCCc1cn(C)c2c(C)cc(OC)cc12
43 | 45.7 nM | COc1cc(C)c2[nH]cc(CCNC(C)=O)c2c1
44 | 31.6 nM | CCC(=O)NCCc1c[nH]c2c(C)cc(OC)cc12
45 | 0.0794 nM | COc1ccc2[nH]cc(CCNC(C)=O)c2c1 [MELATONIN]
46 | 15.8 nM | CCC(=O)NCCc1cn(C)c2c(C)cc(OC)cc12
47 | 9.77 nM | COc1cc(C)c2c(c1)c(CCNC(C)=O)cn2C
48 | 339 nM | COc1cc(-c2ccccc2)c2c(c1)c(CCNC(C)=O)cn2C
49 | 3.31 nM | COc1cc(Br)c2[nH]cc(CCNC(C)=O)c2c1
50 | 64.6 nM | CCC(=O)NCCc1cn(C)c2c(Br)cc(OC)cc12
51 | 120 nM | COc1cc(-c2ccccc2)c2[nH]cc(CCNC(C)=O)c2c1
52 | 155 nM | CCC(=O)NCCc1c[nH]c2c(-c3ccccc3)cc(OC)cc12
53 | 45.7 nM | CCCC(=O)NCCc1c[nH]c2c(-c3ccccc3)cc(OC)cc12
54 | 11.5 nM | CCC(=O)NCCc1c[nH]c2c(Br)cc(OC)cc12
55 | 24.5 nM | COc1cc(Br)c2c(c1)c(CCNC(C)=O)cn2C

From ChEMBL document CHEMBL1148025, “7-Substituted-melatonin and 7-substituted-1-methylmelatonin analogues: effect of substituents on potency and binding affinity” (Bioorg Med Chem, 2007)
